Assay results as given in a melting point compilation (Tetko et al.; mined from patent text by program, amines drawn as free bases though some values may be those of a salt).

Row | SMILES | melting point [°C]
1 | CS(=O)CCC(=N)NS(N)(=O)=O (stereo not given) | 141 to 144
2 | Cc1cccc(-c2ccc(-c3cnn(Cc4ccc([N+](=O)[O-])cc4)c(=O)c3-c3ccc(F)cc3)cc2)c1S(=O)(=O)O | 183 to 184
3 | CCN(CC)c1ccc(CN2C(=O)C(C)(c3ccccc3Cl)c3cc(Cl)ccc32)c(OC)c1 (stereo not given) | 198
4 | CCCCOCCCNC(c1ccccc1)C(O)c1ccccc1 (stereo not given) | 82 to 84
5 | CC(C)=CCN(C(=O)OC(C)(C)C)c1ccc(OC2CCN(C(=O)OC(C)(C)C)CC2)cc1 | 145 to 148
6 | Cc1ccc(C2C(=O)Oc3c2cc(C(C)(C)C)cc3C(C)(C)C)cc1 (stereo not given) | 130 to 133
7 | N#CC(C#N)=C1N(CCCCN2CCCCC2)CCN1CCCCN1CCCCC1 | 96 to 98
8 | CC(C)c1ccc2c(c1)c(SC(C)(C)C)c(CC(C)(C)C(=O)O)n2Cc1ccc(Cl)cc1 | 189 to 192
9 | Cc1ncc(C(=O)NCCOCCO[N+](=O)[O-])s1 | 47 to 48
10 | CCCCOC(=O)[C@H]1NC(=O)[C@H]1N (relative stereo) | 87 to 89
11 | COc1ccc(CC(=O)O)c(C)c1OC | 102 to 104
12 | CC(C)(C)CN(CC(C)(C)C)C(=O)C(O)(C(=O)O)c1ccc(Cl)c(Cl)c1 (stereo not given) | 94 to 95
13 | N#Cc1cc(C(=O)NNC(=O)c2occ(-c3ccccc3)c2-c2ccccc2)ccc1O | 178 to 179
14 | Cn1c(=O)cnn(-c2cc(Cl)c(C(C#N)c3ccc(Cl)cc3)c(Cl)c2)c1=O (stereo not given) | 160
15 | O=C1CC(c2cccs2)=Nc2ccc(I)cc2N1 | > 260
16 | CCOC(=O)C1=C(CO)NC(C(F)(F)F)=C(C(=O)OCC)C1c1cccc2nonc12 (stereo not given) | 110 to 111
17 | COC(=O)C(=CC(=CN(C)C)c1ccc(C)cc1[N+](=O)[O-])[N+](=O)[O-] | 213 to 215
18 | Cc1nc2c(N)cc(Br)cc2n1C | 206 to 209
19 | Cc1ccc(S(=O)(=O)Oc2cc(C(C)(C)C)c(SC3=C(O)CC(CCc4ccc(O)cc4)(C4CCCCC4)OC3=O)cc2C)cc1 (stereo not given) | 105
20 | Fc1ccc2nc[nH]c(=S)c2c1 | 294 to 297
21 | CC(C)(C)C1(C(F)n2cncn2)CO1 (stereo not given) | 72 to 74
22 | NC(=O)N1C(=O)C(=C(OC(=O)c2cccc(C(=O)O)c2)c2cccs2)c2cc(F)c(Cl)cc21 | 244 to 248
23 | COc1ccc(CCNC(=O)C(F)(F)F)cc1S(N)(=O)=O | 165 to 166
24 | CCOC(=O)c1c(CC)nn2ccc3oc(C)cc3c12 | 89 to 90
25 | CC(C)(C)c1cc(CCc2ccccc2NC(=O)NCC(c2ccccc2)c2ccccc2)cc(C(C)(C)C)c1O | 179
26 | O=Cc1cccn2cc(C(F)(F)F)nc12 | 98 to 100
27 | C=CCOC1C(NC(C)=O)C(OCc2ccccc2)OC(COCc2ccccc2)C1OCc1ccccc1 (stereo not given) | 138

Row | SMILES | melting point [°C]
28 | O=C1c2cc3nnn(CCC4CCCCC4)c(=O)c3cc2OC2CCCN12 (stereo not given) | 170
29 | CCOC(=O)c1cc(S)n2nc(C)nc2n1 | 234 to 236
30 | COc1cc(OC)cc(-c2ncoc2-c2ccc(OC(F)F)c(N)c2)c1 | 105
31 | CS(=O)(=O)Nc1cc(CC(=O)O)cc2c1NC(C(F)(F)F)CC2 (stereo not given) | 189 to 191
32 | CCNc1c(OC)cc(C(=O)CS(C)(=O)=O)cc1OC | 129 to 130
33 | CCCCCc1ccc(-c2ccc(CCC3(C#N)CCCC(C)C3)cc2)cc1 (stereo not given) | 73
34 | O=[N+]([O-])c1cccnc1Nc1ccc(O)cc1 | 143 to 144
35 | Cc1nn(C)c2ncc3c(c12)CCC(C)C3 (stereo not given) | 92 to 101
36 | CCc1cc(O)n2nc(CC)c(C)c2n1 | 287
37 | O=S(=O)(Nc1ccc(Cl)cc1Sc1ccc(Cl)cc1)C(F)(F)F | 83 to 84
38 | COc1cc(C=C(CC(=O)N2CCOCC2)C(=O)O)cc(OC)c1OC | 135 to 138
39 | CCOC(=O)c1cnn2c1CCC2 | 35 to 37
40 | CCCCCCCCCCCC(=O)OC1CC(c2ccccc2)N(O)C(c2ccccc2)C1C (stereo not given) | 84 to 91
41 | Oc1ccc2nc(-c3ccc(O)c(F)c3)cc(-c3ccc(C(F)(F)F)cc3)c2c1 | 299 to 300
42 | Cc1nc(C(=O)N(C)C)c2n1-c1ccc(Cl)cc1C(c1ccccc1F)=NC2 | 158 to 160
43 | CN1C(=O)C2(COc3cc4c(cc32)OCCO4)c2c(OCc3ncccc3C(F)(F)F)cccc21 (stereo not given) | 157 to 159
44 | COc1ccccc1N(CC(=O)N(C)c1ccccc1)C(=O)CNC(=O)Nc1cccc(C)c1 | 212
45 | C=C(C(=O)O)c1ccc(OC)c(OC)c1 | 128
46 | O=C1c2ccccc2-c2c1c1ccccc1c(=O)n2CCCCCCCCCCCCn1c2c(c3ccccc3c1=O)C(=O)c1ccccc1-2 | 226 to 228
47 | O=C(C(=O)c1ccc(Cl)cc1)c1ccncc1 | 119 to 120
48 | CS(=O)(=O)NCCn1nnnc1S | 131 to 132
49 | CC(C)(C)c1cc(CCc2ccccc2NC(=O)NCCc2ccccn2)cc(C(C)(C)C)c1O | 180
50 | CCOc1ccc(C=Cc2ccc(OC(F)F)cc2)cc1 | 177
51 | ON=Cc1c(Br)ccc2c1OCO2 | 239 to 240
52 | Cc1cc(-c2cc3ncccc3c(=O)[nH]2)cc(C)c1O | > 350
53 | O=C(O)CCN(C1(C(=O)NO)CCCC1)S(=O)(=O)c1ccc(-c2ccc(F)cc2)cc1 | 163 to 164
54 | CCCC1=NC(=NOC(=O)NC)SC1(C)C | 112 to 114

Further lines, results first:

Row | melting point [°C] | SMILES
55 | 73 to 74 | CCc1c(Cc2ccccc2)[nH]c(=O)[nH]c1=O
56 | 190 to 191 | Cc1sc2c(Br)c3ccccc3c(-c3cc(Br)c(O)c(C4CCCC4)c3)c2c1C
57 | 230 to 232 | Cc1ccc2c(c1Cl)S(=O)(=O)NCN2C1CC1
58 | 205 to 207 | NC(=O)C1CCc2cc(C(=O)c3ccccc3)c(O)cc21 (stereo not given)
59 | 116 to 120 | CN1C(=O)CCC2(C)c3ccc(-c4cccc(F)c4)cc3CCC12 (single isomer, unassigned; (+))
60 | 200 | Cc1cccc(Cl)c1NS(=O)(=O)c1nc(N)n(C(=O)Oc2ccccc2)n1
61 | > 204 | Cc1nc(C(N)=O)c([N+](=O)[O-])n1-c1ccc(Cl)c(Cl)c1
62 | 218 to 219 | CN1CCN(c2cc(NC(=O)c3ccc(-c4ccncc4)cc3)ccc2Cl)CC1
63 | 132 to 133 | CC(C)(C)c1cc(C(=O)c2cccs2)cc(CN2CCCCC2)c1O
64 | 155 to 156 | Cn1cc2c(ncn3nc(-c4ccco4)nc23)n1
65 | 162 to 163 | COC(=O)c1nnc(Cl)cc1NCc1ccc(OC)c(Cl)c1
66 | 140 to 142 | O=C(c1ccccc1C(F)(F)F)N1CCCN(CC2=Nc3cccc4c(=O)[nH]nc(c34)N2)CC1
67 | 63 to 64 | O=C(c1ccc2ncsc2c1)N1CCC[C@H](c2nc(-c3ccc(F)cc3)no2)C1
68 | 119 | CC(C)=CCn1c(N2CCC(N)C2)nc2c1c(=O)n(C)c(=O)n2C (stereo not given)
69 | 156 to 157 | COc1ccc(Cn2cc[nH]c2=S)cc1F
70 | 198 to 203 | CCOC(=O)c1cn(-c2csnn2)c2cc(F)c(F)cc2c1=O
71 | 153 | CN(C)CC(=O)Nc1cccc2nc(N[C@@H]3CCc4ccccc43)ccc12
72 | 87.5 to 92.5 | COc1cccc(NC(=O)Nc2nc3nc(NCCCN4CCN(C)CC4)ncc3cc2-c2c(Cl)cccc2Cl)c1
73 | 131 to 132 | CCc1nc2c(N)nc3cc(Br)ccc3c2n1CC1CCN(C(=O)OC(C)(C)C)CC1
74 | 139 to 141 | CCCNC(=O)CCCCCn1c(CCC)nc2c(N)nc3ccccc3c21
75 | 122 | CCN(CC)C(=O)c1cc2ccccc2c(-c2ccc(Cl)cc2)n1
76 | 108 to 110 | C=CCOC(=O)N[C@H]1CC(=O)O[C@H]1OCc1ccccc1
77 | 312 to 314 | CCC(CC)NC(=O)CCCOc1ccc2nc3[nH]c(=O)[nH]c3cc2c1

Row | melting point [°C] | SMILES
78 | 95 to 96 | Cc1c(NCc2ccccc2)c2c(c3c1C(c1ccc(C(C)C)cc1)CO3)CCC2 (stereo not given)
79 | 185 to 189 | NS(=O)(=O)c1ccc(-c2cnn(Cc3ccccc3)c(=O)c2-c2ccc(F)cc2)cc1
80 | > 250 | Cc1cc(-c2ccc(C(F)(F)F)cc2)cc(-c2cccc(-c3csc(N)n3)c2)n1
81 | 143 to 144 | F[C@H]1C[C@H](COc2ccccc2Cl)N(c2ncnc3[nH]cnc23)C1
82 | 204 to 207 | O=C1Cc2cc(Cl)cc(Oc3ccccc3F)c2N1
83 | 69 to 70 | O=C(c1ccccc1)c1cccc(OCCn2ccnc(N3CCNCC3)c2=O)c1
84 | 195 | CN1CCN(c2cccc(Nc3ncc4ccc(-c5cn[nH]c5)n4n3)c2)CC1
85 | 182 to 184 | NC(=O)NNC(c1ccccc1)c1ccccc1
86 | 231 to 233 | Cc1cc(-n2cncn2)cc(C#N)c1N
87 | 103 to 104 | Cc1cc(C)c(C(CO)c2ccccc2)c(O)c1C (stereo not given)
88 | 278 to 285 | CC(=O)N1CCN(c2ccc(-c3cnc4[nH]cc(C(=O)C5(C)CCCCC5)c4n3)cc2)CC1
89 | 209 to 210 | Cc1nc(N)nc(N)c1N1CCN(Cc2ccccc2)CC1
90 | 115 | Cc1ccc(Cl)cc1NC(=S)n1c(C)c(C)c2ccccc21
91 | 150 to 151 | O=C(Nc1ccc(OCCN2CCOCC2)c2ccccc12)c1cc(F)cc(N2CCCCC2)c1
92 | 260 to 261 | CC(=O)N1c2c(ccn3c(C)c(C)nc23)[C@@H](O)[C@H](O)[C@H]1c1ccccc1
93 | 94 to 95 | CSc1cccc(-c2ccccc2NC(=N)N(C)C)c1
94 | 168 | O=S(=O)(N[C@H]1CC[C@H](CCN2CCN(c3nccc4c3CCO4)CC2)CC1)c1ccccc1
95 | 155 to 157 | COC(=O)COc1ccc(C(=O)CN2CCN(c3ccnc(C)c3)CC2)cc1
96 | 120 | O=C1NCc2ccccc2N1C1CCN(Cc2ccccc2)CC1
97 | 210 to 214 | CCn1c(=O)c(-c2c(Cl)cccc2Br)cc2cnc(Nc3ccccc3)nc21
98 | 102 to 104 | O=C(c1c(C2CC2)nn2ccccc12)C1CC1
99 | 190 to 192 | Cc1ncn(-c2ccc(N3C[C@H](CO)OC3=O)cc2F)n1
100 | 79 to 81 | CCOc1ccc(OCCCCCN2CCN(c3nccs3)CC2)cc1
